Biological target: T1, HuNoV GII.4 VLP (Human calicivirus NLV/DIJON171/96, UniProt Q8QY55)
T1 construct: full VP1 virus-like particle, self-assembled, from baculovirus (Bac-to-Bac) infected SF-9 cells, sucrose gradient purified; amine-coupled to CM5 chip
Experiment: SPR, Biacore T-200, VLP immobilized on CM5 chip
Assay type: binding
From the text: SPR, Biacore T-200, VLP immobilized on CM5 chip on HuNoV GII.4 VLP

Row | Structure (SMILES) | Kd [µM]
1 | C[C@H](CCC(=O)O)[C@H]1CC[C@H]2[C@@H]3CC[C@@H]4C[C@H](O)CC[C@]4(C)[C@H]3C[C@H](O)[C@]12C [DCA] | 176 ± 4.9
2 | C[C@H](CCC(=O)NCC(=O)O)[C@H]1CC[C@H]2[C@@H]3[C@H](O)C[C@@H]4C[C@H](O)CC[C@]4(C)[C@H]3CC[C@]12C [GCDCA] | 123 ± 24
3 | C[C@H](CCC(=O)NCC(=O)O)[C@H]1CC[C@H]2[C@@H]3CC[C@@H]4C[C@H](O)CC[C@]4(C)[C@H]3C[C@H](O)[C@]12C [GDCA] | 286 ± 64.3
4 | C[C@H](CCC(=O)NCCS(=O)(=O)O)[C@H]1CC[C@H]2[C@@H]3[C@H](O)C[C@@H]4C[C@H](O)CC[C@]4(C)[C@H]3CC[C@]12C [TCDCA] | 236 ± 58
5 | C[C@H](CCC(=O)NCCS(=O)(=O)O)[C@H]1CC[C@H]2[C@@H]3CC[C@@H]4C[C@H](O)CC[C@]4(C)[C@H]3C[C@H](O)[C@]12C [TDCA] | 308 ± 29.7
6 | C[C@H](CCC(=O)NCCS(=O)(=O)O)[C@H]1CC[C@H]2[C@@H]3CC[C@@H]4C[C@H](O)CC[C@]4(C)[C@H]3CC[C@]12C [TLCA] | 64 ± 9.9
